Here are results for five molecules from ChEMBL document CHEMBL2073915, “Broad-spectrum modulation of ATP-binding cassette transport proteins by the taxane derivatives ortataxel (IDN-5109, BAY 59-8862) and tRA96023” (Cancer Chemother Pharmacol, 2004).

Common to all, as to type: functional, cell-based
What all share (settings): mcf7r

In series [1] the target is T1, ATP-dependent translocase ABCB1 (Homo sapiens, UniProt P08183). The series is described as follows: TP_TRANSPORTER: efflux of 3uM mitoxantrone in the presence of Probenecid at 1mM in MCF7/R cells.
Series [2] has as its target T1, ATP-dependent translocase ABCB1. The series is described as follows: TP_TRANSPORTER: efflux of mitoxantrone (Mitoxantrone: 3uM) in the presence of Ortataxel at a concentration of 10uM in MCF7/R cells.
Series [3] has the same target. Kind of series: TP_TRANSPORTER: efflux of 3uM mitoxantrone in the presence of PSC-833 (Valspodar) at a concentration of 2.5uM in MCF7/R cells.
Series [4] shares this target. Kind of series: TP_TRANSPORTER: efflux of 3uM mitoxantrone by Fumitremorgin C at 10uM in MCF7/R cells.
For series [5] the target is unchanged. The series is described as follows: TP_TRANSPORTER: efflux of 3uM mitoxantrone in the presence of tRA96023 at a concentration of 10uM in MCF7/R cells.

T1 sequence (P08183 whole entry): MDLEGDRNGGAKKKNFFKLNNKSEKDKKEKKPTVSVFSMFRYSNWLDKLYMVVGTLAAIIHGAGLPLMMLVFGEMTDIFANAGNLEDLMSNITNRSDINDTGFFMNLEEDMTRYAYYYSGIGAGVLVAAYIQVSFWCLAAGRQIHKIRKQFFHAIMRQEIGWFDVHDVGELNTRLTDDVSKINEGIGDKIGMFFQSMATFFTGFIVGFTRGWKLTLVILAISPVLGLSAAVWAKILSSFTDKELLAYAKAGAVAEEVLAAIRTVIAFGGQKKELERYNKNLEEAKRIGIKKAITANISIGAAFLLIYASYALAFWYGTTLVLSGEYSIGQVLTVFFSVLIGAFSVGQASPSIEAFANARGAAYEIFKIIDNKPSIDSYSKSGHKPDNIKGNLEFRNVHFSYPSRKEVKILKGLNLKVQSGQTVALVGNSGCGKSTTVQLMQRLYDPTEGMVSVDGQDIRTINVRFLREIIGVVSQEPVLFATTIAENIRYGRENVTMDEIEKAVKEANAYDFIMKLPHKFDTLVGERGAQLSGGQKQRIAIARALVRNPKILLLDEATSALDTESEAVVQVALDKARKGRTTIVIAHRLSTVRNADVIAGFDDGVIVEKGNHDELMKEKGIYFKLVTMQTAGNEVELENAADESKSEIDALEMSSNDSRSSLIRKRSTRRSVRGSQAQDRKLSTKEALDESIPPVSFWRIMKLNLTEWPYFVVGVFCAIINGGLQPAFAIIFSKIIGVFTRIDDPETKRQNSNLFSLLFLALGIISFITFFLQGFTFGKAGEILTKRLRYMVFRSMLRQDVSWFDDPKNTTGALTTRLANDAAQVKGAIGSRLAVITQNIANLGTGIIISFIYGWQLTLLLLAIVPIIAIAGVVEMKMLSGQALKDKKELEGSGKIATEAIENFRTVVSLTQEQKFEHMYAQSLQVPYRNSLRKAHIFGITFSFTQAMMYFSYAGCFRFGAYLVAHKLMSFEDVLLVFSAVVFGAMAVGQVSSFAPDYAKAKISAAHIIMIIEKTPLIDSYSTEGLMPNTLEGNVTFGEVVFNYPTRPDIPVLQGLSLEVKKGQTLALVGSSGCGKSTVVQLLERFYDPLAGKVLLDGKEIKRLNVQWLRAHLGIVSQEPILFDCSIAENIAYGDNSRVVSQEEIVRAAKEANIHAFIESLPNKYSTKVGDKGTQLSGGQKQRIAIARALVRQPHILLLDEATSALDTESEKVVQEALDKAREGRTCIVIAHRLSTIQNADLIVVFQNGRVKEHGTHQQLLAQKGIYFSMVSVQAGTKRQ

On to `CCCN(CCC)S(=O)(=O)c1ccc(C(=O)O)cc1` [PROBENECID], for which the Activity result in series [1] is “is not an inhibitor [-]”.
With `CC(=O)O[C@H]1C(=O)[C@@]2(C)[C@H]([C@H](OC(=O)c3ccccc3)[C@]34OC(=O)O[C@H]3[C@H](OC(=O)[C@H](O)[C@H](CC(C)C)NC(=O)OC(C)(C)C)C(C)=C1C4(C)C)[C@]1(OC(C)=O)CO[C@@H]1C[C@@H]2O` [ORTATAXEL], in series [2], the Activity result was “inhibitor [+]”.
Turning to `C/C=C/C[C@@H](C)C(=O)[C@H]1C(=O)N[C@@H](C(C)C)C(=O)N(C)CC(=O)N(C)[C@@H](CC(C)C)C(=O)N[C@@H](C(C)C)C(=O)N(C)[C@@H](CC(C)C)C(=O)N[C@@H](C)C(=O)N[C@H](C)C(=O)N(C)[C@@H](CC(C)C)C(=O)N(C)[C@@H](CC(C)C)C(=O)N(C)[C@@H](C(C)C)C(=O)N1C` [VALSPODAR], the Activity entry in series [3] is “inhibitor [+]”.
As for `COc1ccc2c3c([nH]c2c1)[C@H](C=C(C)C)N1C(=O)[C@@H]2CCCN2C(=O)[C@@H]1C3` [FUMITREMORGIN], in series [4], the Activity result is “is not an inhibitor [-]”.
Turning to `CC(=O)O[C@H]1C(=O)[C@@]2(C)C([C@H](OCc3ccccc3)C3(O)C[C@H](OC(C)=O)C(C)=C1C3(C)C)[C@]1(OC(C)=O)CO[C@@H]1C[C@@H]2OC(=O)/C=C/c1ccc(C(=O)c2ccccc2)cc1` (stereo not given in full), the Activity result in series [5] was “inhibitor [+]”.
